# Results published in patent US11737991B2, “Eutectic formulations of cyclobenzaprine hydrochloride and amitriptyline hydrochloride” (TONIX PHARMA HOLDINGS LIMITED, priority 2013, dated 2023).
# “Also recorded” adds a separate entry of the source. Structures can show the parent of a compound that is named as a salt.
# What was measured:
# Assay type in all cases: physicochemical
# [1] = DSC compatibility of excipients with Cyclobenzaprine HCl (Example 1); settings: for Excipient reactions with API, Mixture 1:1: 1:1 API:excipient, ground in agate mortar
# Experimental: Thermal analytical techniques were used to assess the compatibility of a drug product (tablet) containing Cyclobenzaprine HCl (API). The compatibility assessment was carried out between the API and a number of possible excipients in a 1:1 ratio. Based on the thermal events recorded for each component and for the mixtures, the analyses were carried out by investigating the peaks recorded by differential scanning calorimetry (DSC) in mixture between API and the excipients. Differences in thermal profiles between the single compound and the related mixture obtained after milling the products in an agate mortar were evaluated. Stability and compatibility also were also assessed on the final drug product after stress conditions at 40° C. and 50° C. for one month.
# A “formulation ratio” mixture was made with the following composition: 2.40 mg Cyclobenzaprine HCl, 31.55 mg Mannitol and Maize starch, 2.00 Crospovidone, 0.50 mg colloidal silica, 0.050 mg Sodium Stearyl Fumarate, and 1.05 Potassium hydrogen phosphate.
# Aliquots of API and each excipient were weighed in a ratio of 1:1 (unless specified otherwise) and ground in an agate mortar. The homogeneous mixtures then were analyzed.
# The DSC heating curves were obtained with a TA 821 DSC Mettler instrument under the following conditions:
# (§1) Ambient: Nitrogen 30 mL/min
# (§2) Sample holder: normal open aluminum pan
# (§3) Temperature range: from 25° C. to 250° C.
# (§4) Instrument calibration: Indium sample purity 99.999%
# [2] = Dissolution test, USP paddle, pyrophosphate buffer pH 4.5; settings: pH 4.5, free base still present and does not go into solution
# Experimental: To test the dissolution properties of the 6 mannitol eutectic, dissolution tests were carried out with a Copley DIS 6000 instrument under the following conditions: Apparatus: USP Paddle RPM: 50 Medium: Pyrophosphate buffer 0.5% pH=4.5±0.05 Additive: Methocel 0.3% Vessel volume: 300 mL Temperature: 37±0.5° C. Sampling time: 1, 2, 5, 10, 20, 30, and 60 min, then each hour until 6 hours. The sampling solutions were diluted 1 to 50 mL and then 1 to 50 mL with medium and submitted to UV analysis with UV ([…]) under the following conditions: λ max: 224 nm Cuvette: […] Blank: medium
# [3] = DSC, FT-IR/ATR and XRPD compatibility of excipients with Cyclobenzaprine HCl, mixed (A) and milled (B) 1:1 mixtures (Example 2); settings: for Type of interaction between excipient and API (summary): 1:1 mixtures, mixed and milled
# Experimental: As described above, thermal analytical techniques were further used to assess the compatibility of a drug product (tablet) containing Cyclobenzaprine HCl (API). The compatibility assessment was carried out between the API and additional excipients in a 1:1 ratio. The 1:1 APT-excipient mixtures were formed in two different ways: first, by mixing only, and second, by strong milling in an agate mortar. The thermal behavior recorded in the two different mixtures were compared with those of the single components. On the basis of thermal events recorded for each component and for the mixtures, the analyses were carried out by investigating the meanings of the peaks recorded by differential scanning calorimetry (DSC) in mixtures between the API and the excipients. Furthermore, in order to define the nature of the interaction, the Fourier Transform Infra Red Spectroscopy with Total Attenuated Reflectance (FT-IR/ATR) and X-ray powder diffraction (XRPD) of some samples (API, excipient, and mixed and milled mixtures) was carried out and compared.
# Aliquots of API and each excipient were weighed in a ratio of 1:1 and ground in an agate mortar. Then, the homogeneous mixtures were analyzed. These sample mixtures were labeled “B”, while the mechanical-only mixtures were labeled “A.”
# The DSC heating curves were obtained by TA 821 DSC Mettler instrument under the following conditions:
# as §1, §2, §3, §4
# The FT-IR spectra were collected with a Perkin Elmer spectrum Two instrument with air as background and 4 cm-1 resolution.
# X-ray powder diffraction (XRPD) tests were performed with the ULTIMA IV instrument (Rigaku), laying the sample on a static sample holder. The X-ray focusing slit has a variable width, interlocked with the q value. The X-ray tube has a Copper target, with a current intensity of 40 mA and a voltage of 40 kV. Radiation was generated by the Cockcroft-Walton method, and was constituted by Kα1 (1.540562 Å) and Kα2 (1.544398 Å). The analytical conditions were:
# Fixed Time; sampling width 0.02 deg, scanning rate 1.3 s/step, 2 q range 3.35 deg and sample holder; amorphous glass equiangular 9200/2G, 0.2 mm deep. The sample was pressed with a glass plate.
# [4] = XRPD of binary Cyclobenzaprine HCl-mannitol mixtures (Example 3); settings: binary mixtures 30-90% API, no thermal treatment
# Experimental: In order to confirm the eutectic formation and to characterize its physical properties, several binary mixtures at different ratios of API-excipient were prepared and analyzed by DSC and by X-ray powder diffraction (XRPD). The mixtures were obtained by gently milling in agate mortar of micronized Cyclobenzaprine HCl and mannitol, in order to obtain homogeneous distribution of the particles. For each DSC heating curve, the onset temperature and the enthalpy were evaluated both for the eutectic contribute and for the excess of component. The recorded values were plotted and a phase diagram between the two components was obtained with a characteristic profile of phase diagrams of eutectic mixtures. Mixtures also were investigated by XRPD and compared with the patterns of pure components. […] Aliquots of Cyclobenzaprine HCl API and Mannitol were weighed in the ratios described below and ground in an agate mortar, and the homogeneous mixtures subsequently analyzed. X-ray powder diffraction (XRPD) tests were performed with a ULTIMA IV (Rigaku) instrument, laying the sample on a static sample holder. […] The radiation generated by the Cockcroft-Walton method is constituted by Kα1 (1.540562 Å) and Kα2 (1.544398 Å). The analytical conditions were as follows: Fixed Time: Sampling width, 0.02 deg; Scanning rate, 1.0 s/step […] Sample holder: amorphous glass—equiangular 9200/2G, 0.2 mm deep. […]
# [5] = DSC compatibility of excipients with Amitriptyline HCl (Example 4); settings: Amitriptyline HCl:excipient 1:1, milled in agate mortar
# Experimental: Thermal analytical techniques were used to assess the compatibility of the drug product Amitriptyline HCl. The compatibility assessment was carried out between the API and the excipients in a 1:1 ratio. On the basis of thermal events recorded for each component and for the mixtures, the analyses were carried out by investigating the peaks recorded by DSC in mixtures between API and the excipients. Differences in thermal profiles between the single compound and the related mixtures were obtained after milling the products in an agate mortar.
# [6] = listed as Potassium phosphate bibasic
# [7] = listed as Sodium Stearyl fumarate, fumarate
compound,measurement,setting,value
"O=P([O-])([O-])O.[K+].[K+] [Potassium phosphate dibasic, dipotassium hydrogen phosphate]","Excipient reactions with API, Mixture 1:1",[1],Acid - base interaction
same,"Excipient reactions with API, Mixture 1:1",[1]; [6],chemical interaction (acid-base); also recorded: chemical (acid-base) interaction
same,"Excipient reactions with API, Mixture in formulation ratio",[1],Low chemical
same,"Excipient reactions with API, Mixture in formulation ratio",[1]; listed as K2HPO4,small interaction
same,"Excipient reactions with API, Mixture in formulation ratio",[1]; [6],chemical (acid-base) interaction
"CN(C)CCC=C1c2ccccc2C=Cc2ccccc21 [Cyclobenzaprine HCl, 3-(5H-dibenzo[a,d]cyclohepten-5-ylidene)-N,N-dimethyl-1-propanamine]",Cyclobenzaprine dissolution,[2],< 100%
"O=C([O-])CC(O)(CC(=O)[O-])C(=O)[O-].[Na+].[Na+].[Na+] [Tri Sodium Citrate anhydrous, Trisodium citrate anhydrous]",Nature of interaction by FT-IR/ATR,"[3]; 1:1 mixture, room temperature, no thermal treatment",no chemical acid-base reaction had occurred
same,Type of interaction between excipient and API (summary),[3],only physical
CCCCCCCCCCCCCCCCCCOC(=O)/C=C/C(=O)[O-].[Na+] [Sodium stearyl fumarate],"Excipient reactions with API, Mixture 1:1",[1]; fumarate,Physical interaction
same,"Excipient reactions with API, Mixture 1:1",[1]; [7],small physical interaction
same,"Excipient reactions with API, Mixture in formulation ratio",[1]; fumarate,No interaction
same,"Excipient reactions with API, Mixture in formulation ratio",[1]; [7],this incompatibility disappears
OC[C@@H](O)[C@@H](O)[C@H](O)[C@@H](O)CO [Sorbitol],Type of interaction between excipient and API (summary),[3],physical interaction
OC[C@@H](O)[C@@H](O)[C@H](O)[C@H](O)CO [Mannitol],Interaction between API and mannitol by XRPD,[4],"no adduct formation, only a physical eutectic formation; also recorded: no adduct interaction occurred"
same,Type of interaction between excipient and API (summary),[3],formation of a eutectic
Sodium Phosphate dodecahydrate,"Interactions between API and excipients, Mixture in formulation (1:1 ratio)",[5],physical interaction
